Data published in patent publication US20060067991A1 (priority 2004, published 2006).

Legend:
[1] = system: enzymes produced by S. aureus MN8; assay: Breakdown of test compounds by enzymes produced by S. aureus MN8, GC/MS of culture fluid; format: in vitro ADME; details: concentrations of b130; for course of the concentration of the dominant compound over time: GC/MS at 3, 6, 9 and 24 hours; for dominant compound found in the culture fluid: GC/MS, undiluted solutions at 3, 6, 9 and 24 hours
Method: (§1) The test compounds, in the desired concentrations, were placed in 100 mL of a growth medium in a sterile, 500 mL Corning Fleaker (Fisher Scientific, Pittsbury, Pa.). The growth medium and inoculum were prepared as in Example 1.
(§2) The test compounds were added to the growth medium in the amount necessary to obtain the desired final concentration.
(§3) Each fleaker was inoculated with the amount of inoculum determined as described above. The fleakers were capped with sterile aluminum foil and incubated at 35° C. in atmospheric air in a Lab-Line orbital water bath (available from VWR Scientific Products, McGaw Park, Ill.) at 180 rpm. Fifteen milliliter samples were removed at 3, 6, 9, and 24 hours. The optical density (595 nm) of the culture fluid was determined and the culture fluid collected at 24 hours was assayed for the number of colony forming units of S. aureus MN8 using standard plate count procedures.
In preparation for analysis of the integrity of the test compounds, the culture fluid was centrifuged at 3000 rpm at 2-10° C. for 15 minutes. The supernatant was filter sterilized through an AUTOVIAL 5 syringeless filter, […] pore size (available from Whatman, Inc., Clifton, N.J.). The resulting fluid was frozen at −70° C. in a FISHERBRAND (12 mm×75 mm) polystyrene culture tube (Fisher Scientific, Pittsburgh, Pa.) until chemical analysis could be performed.
Using an Agilent Technologies 5973N GC/MS, analysis was performed on undiluted solutions at 3, 6, 9, and 24 hours to evaluate the ability of S. aureus MN8 to breakdown the test compounds. Based on the analysis, the control sample, which had no test compounds added, comprised mostly acetic acid at all time intervals.

[2] = system: enzymes produced by S. aureus MN8; assay: Breakdown of test compounds by S. aureus MN8, liquid chromatography of culture fluid; format: in vitro ADME; details: 6 hour and 24 hour samples, UV 230 nm
Method: as §1, §2, §3
In preparation for analysis of the integrity of the test compounds, the culture fluid was centrifuged at 3000 rpm at 2-10° C. for 15 minutes. […]
Additional analysis of the 6 hour and 24 hour samples was conducted by liquid chromatography. […] The dilutions were then analyzed using an ion exclusion column to achieve the separation. Detection of the compounds was accomplished through UV absorbance at 230 nm.

SMILES	course of the concentration of the dominant compound over time [1]	dominant compound found in the culture fluid [1]	breakdown to the active species [2]
CC(C)CC(NC(=O)c1ccccc1)C(=O)O (racemic) [N-benzoyl-DL-leucine, N-Benzoyl-DL-Leucine]	decreasing concentration over time	benzoic acid	breakdown to benzoic acid
OCc1ccccc1 [Benzyl alcohol, benzyl alcohol]	decreased over time	benzyl alcohol	
O=C(O)c1ccccc1 [benzoic acid]	decreased over time	benzoic acid	
